Laboratory results reported in patent publication US7585877B2, “Aminophenyl derivatives as selective androgen receptor modulators” (Acadia Pharmaceuticals, Inc., priority 2005, dated 2009).
Where a name gives a salt, the structure may show the parent alone. Read-outs that look alike come from different tables or passages of the source.

How the values were obtained:
Androgen AR receptor = target: T1, Androgen AR receptor (Homo sapiens, UniProt P10275); test: Receptor Selection and Amplification Technology (R-SAT) functional receptor assay; format: cell-based; conditions: for Emax: read-out: % Efficacy
T1 construct: expressed in transfected cells; host or cells: NIH3T3 cells
T1 sequence (P10275 1-920): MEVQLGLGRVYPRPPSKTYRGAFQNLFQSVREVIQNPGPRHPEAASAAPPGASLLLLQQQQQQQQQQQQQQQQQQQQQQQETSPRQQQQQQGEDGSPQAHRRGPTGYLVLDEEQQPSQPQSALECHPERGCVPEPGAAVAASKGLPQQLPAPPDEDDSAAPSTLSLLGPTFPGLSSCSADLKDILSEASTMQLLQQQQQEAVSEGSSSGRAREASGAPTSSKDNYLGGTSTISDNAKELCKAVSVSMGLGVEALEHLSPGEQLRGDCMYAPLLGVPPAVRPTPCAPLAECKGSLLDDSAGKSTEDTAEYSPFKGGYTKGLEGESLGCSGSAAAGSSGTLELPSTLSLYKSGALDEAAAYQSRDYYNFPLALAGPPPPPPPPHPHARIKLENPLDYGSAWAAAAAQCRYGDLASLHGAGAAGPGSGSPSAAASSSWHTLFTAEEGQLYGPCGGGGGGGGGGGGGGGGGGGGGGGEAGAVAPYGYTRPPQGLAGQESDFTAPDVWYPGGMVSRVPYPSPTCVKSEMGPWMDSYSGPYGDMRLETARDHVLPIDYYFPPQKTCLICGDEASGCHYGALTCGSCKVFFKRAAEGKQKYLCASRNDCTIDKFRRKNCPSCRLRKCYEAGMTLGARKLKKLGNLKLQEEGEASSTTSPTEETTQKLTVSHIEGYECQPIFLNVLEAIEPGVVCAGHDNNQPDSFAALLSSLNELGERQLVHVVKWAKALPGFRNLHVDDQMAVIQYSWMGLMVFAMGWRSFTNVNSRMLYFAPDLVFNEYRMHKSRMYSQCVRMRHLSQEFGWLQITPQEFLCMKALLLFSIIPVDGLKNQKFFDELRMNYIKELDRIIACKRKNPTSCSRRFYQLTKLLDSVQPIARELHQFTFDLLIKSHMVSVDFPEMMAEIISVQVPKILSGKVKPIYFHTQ
Method: The functional receptor assay, Receptor Selection and Amplification Technology (R-SAT™), was used with minor modifications from the procedure described previously (Brann, M. R., U.S. Pat. No. 5,707,798, which is hereby incorporated herein by reference in its entirety) to screen compounds for efficacy at the Androgen AR receptor. Briefly, NIH3T3 cells were grown in roller bottles to 70-80% confluence. Cells were then transfected for 12-16 h with plasmid DNAs using Polyfect (Qiagen Inc.) as per the manufacturer's protocol. R-SAT assays were typically performed by transfecting 30 ug/bottle of receptor and 50 ug/bottle of β-galactosidase plasmid DNA. All receptor and helper constructs used were in mammalian expression vectors. Helpers are defined as signaling molecules that modulate both ligand-dependent and/or ligand-independent function of the AR receptor, typically co-activators.
NIH3T3 cells were transfected for 12-16 h, then trypsinized and frozen in DMSO. Frozen cells were later thawed, plated at 10,000-40,000 cells per well of a 96 well plate containing drug. Cells were then grown in a humidified atmosphere with 5% ambient CO2 for five days. Media was then removed from the plates and marker gene activity was measured by the addition of the β-galactosidase substrate o-nitrophenyl β-D-galactopyranoside (ONPG, in PBS with 5% NP-40). The resulting colorimetric reaction was measured in a spectrophotometric plate reader (Titertek Inc.) at […]. All data were analyzed using the computer program XLFit (IDBSm).

[1] = system: castrated male Sprague Dawley rats; test: In vivo activity in castrated rats: wet tissue weights; parameters: species or system rat
Method: (§1) Test compounds of formula I are administered p.o. daily for two weeks to castrated male Sprague Dawley rats (n=3). The effects of the test compounds (1, 3, 10, 30 mg/kg) are compared to testosterone propionate (1 and 3 mg/kg s.c.; positive control) and vehicle (10% Tween80; negative control). Blood and wet weights of prostate gland and seminal vesicle are measured after sacrifice that occurs 24 hours after the last dose. Blood is collected in heparin collection tubes after sacrifice that occurred 24 hours after the last dose. Blood is centrifuged and plasma collected and plasma samples frozen.

[2] = system: Rat luteinizing hormone (LH) plasma levels; test: In vivo activity in castrated rats: plasma luteinizing hormone (ELISA); conditions: castrated rats (FIG. 4)
Method: as §1
Rat luteinizing hormone (LH) plasma levels are determined using an enzyme linked immunoabsorbent assay (ELISA) from Amersham as per manufacturer's instructions. The solid phase assay is based on the competition between unlabeled rLH and a fixed quantity of biotin labelled rLH for a limited amount of rLH specific antibody. A conjugate streptavidin/peroxidase allows for signal amplification and detection in presence of the substrate.

[3] = R-SAT, transfected NIH3T3 cells

Compound `Cc1c(N2[C@@H]3CC[C@H]2C[C@@H](O)C3)ccc(C#N)c1Cl` [165RL90, 2-Chloro-4-(3-endo-hydroxy-8-azabicyclo[3.2.1]octan-8-yl)-3-methylbenzonitrile, hydrochloride] has an EC50 (Androgen AR receptor) of 2 nM and an Emax (Androgen AR receptor; [3]) of 81%.
With `Cc1c(N2[C@@H]3CC[C@H]2C[C@@H](O)C3)ccc([N+](=O)[O-])c1Cl` [173FBA73bL, endo-8-(3-chloro-2-methyl-4-nitrophenyl)-8-azabicyclo[3.2.1]octan-3-ol] the Emax (Androgen AR receptor; [3]) was 80% and the EC50 (Androgen AR receptor; R-SAT, transfected NIH3T3 cells, read-out: pEC50 (converted)) was 3.16 nM.
In the case of `Cc1c(N2[C@@H]3CC[C@H]2C[C@@](C)(O)C3)ccc(C#N)c1Cl` [198RL26, 2-Chloro-4-(3-endo-hydroxy-3-exo-methyl-8-azabicyclo[3.2.1]oct-8-yl)-3-methylbenzonitrile hydrochloride], the EC50 (Androgen AR receptor) is reported as 1.58 nM, the Emax (Androgen AR receptor; [3]) is reported as 79% and the “wet tissue weights (prostate, seminal vesicle, levator ani muscle)” value ([1]; 3 mg/kg daily s.c. (so in the source) for two weeks, castrated rats) is reported as “did not appear to significantly alter wet tissue weights”. The “dose relative to TP at which negative side effects (increased seminal vesicle and prostate size) become evident” value ([1]; castrated rats, two weeks daily dosing) was “at least 100 × of TP”, the “wet tissue weights (prostate, seminal vesicle, levator ani muscle)” value ([1]; higher doses (3 and 10 mg/kg) daily, castrated rats) was “appeared to significantly increase wet tissue weights, however, not to the extent of TP” and the “plasma LH levels” value ([2]; 10 mg/kg p.o. for 14 days) was “complete reversal”. For the same compound, the “plasma LH levels” value ([2]; various doses, p.o. for 14 days) was “dose-dependent suppression of plasma LH levels”.
For `CCC(=O)O[C@H]1CC[C@H]2[C@@H]3CCC4=CC(=O)CC[C@]4(C)[C@H]3CC[C@]12C` [testosterone propionate, reference compound], the “prostate wet tissue weight as compared to vehicle treatment” value ([1]; 1 mg/kg daily s.c. for two weeks, castrated rats (FIG. 1)) was “significant increases”, the “seminal vesicle wet tissue weight as compared to vehicle treatment” value ([1]; 1 mg/kg daily s.c. for two weeks, castrated rats (FIG. 2)) was “significant increases” and the “levator ani muscle wet tissue weight as compared to vehicle treatment” value ([1]; 1 mg/kg daily s.c. for two weeks, castrated rats (FIG. 3)) was “significant increases”. For the same compound, the “plasma LH levels” value ([2]; 1 mg/kg, s.c. for 14 days) was “restored LH levels to those obtained in naive rats”.
